Here are results for four compounds from patent US20070032556A1, “Aromatic polyamine derivative” (priority 2003, published 2007).

The series in a line: solubility of the monomers or polymer in the coating solvent. Format: physicochemical. As to the method: In 100 g of mesitylene were dissolved 2.48 g (8 mmol) of 1,3,5-adamantanetricarboxylic acid trimethyl ester prepared in Synthesis Example 1 and 6.42 g (12 mmol) of 3,3′-diaminobenzidinetetracyclohexanoimine[N,N′,N″,N′″-tetracyclohexylidene-3,4,3′,4′-biphenyltetramine] prepared in Example 5 at room temperature in a nitrogen atmosphere and thereby yielded a coating composition having a monomer concentration of 8.2 percent by weight. The coating composition was passed through a filter with a pore size of 0.1 micron and was applied to an 8-inch silicon wafer by spin coating. This was heated at 300° C. in a nitrogen atmosphere for thirty minutes, was further heated at 400° C. for thirty minutes, and thereby yielded a film. The infrared absorption spectrum of the resulting polymer film was determined to find that the target crosslinked polybenzimidazole film was formed as shown in the infrared absorption spectral data in FIG. 1. The film has a film thickness of 300 nm.
The procedure of Example 15 was repeated, except for using the same amounts as in Example 15 of 1,3,5-adamantanetricarboxylic acid and 3,3′-diaminobenzidine instead of 1,3,5-adamantanetricarboxylic acid trimethyl ester and N,N′,N″,N′″-tetracyclohexylidene-3,4,3′,4′-biphenyltetramine, respectively, to find the solubility in the solvent (mesitylene) was low. Consequently, a coating composition having a monomer concentration of 1.2 percent by weight was prepared by the procedure of Example 15, except for using 0.54 g (2 mmol) of 1,3,5-adamantanetricarboxylic acid and 0.64 g (3 mmol) of 3,3′-diaminobenzidine. By using this coating composition, a polymer film was prepared by the procedure of […], and the infrared absorption spectrum of the polymer film was determined to find that the target crosslinked polybenzimidazole film was formed. The film has a film thickness of less than 20 nm.
A coating composition having a monomer concentration of 14.7 percent by weight was prepared by dissolving 4.42 g (12 mmol) of 1,3,5,7-adamantanetetracarboxylic acid tetramethyl ester and 12.83 g (24 mmol) of 3,3′-diaminobenzidinetetracyclohexanoimine[N,N′,N″,N′″-tetracyclohexylidene-3,4,3′,4′-biphenyltetramine] prepared according to Example 5 in 100 g of methyl isobutyl ketone (MIBK) at room temperature in a nitrogen atmosphere. The coating composition was passed through a filter with a pore size of 0.1 micron and was applied to an 8-inch silicon wafer by spin coating. This was heated at 300° C. in a nitrogen atmosphere for thirty minutes and further heated at 400° C. for thirty minutes to yield a film. The infrared absorption spectrum of the resulting polymer film was determined to find that the target crosslinked polybenzimidazole film was formed. The film has a film thickness of 400 nm.
The procedure of Example 16 was repeated, except for using the same amounts as in Example 16 of 1,3,5,7-adamantanetetracarboxylic acid and 3,3′-diaminobenzidine instead of 1,3,5,7-adamantanetetracarboxylic acid tetramethyl ester and N,N′,N″,N′″-tetracyclohexylidene-3,4,3′,4′-biphenyltetramine, respectively, to find that the solubility in the solvent (methyl isobutyl ketone: MIBK) was low. Consequently, a coating composition having a monomer concentration of 1.5 percent by weight was prepared by the procedure of Example 16, except for using 0.62 g (2 mmol) of 1,3,5,7-adamantanetetracarboxylic acid and 0.86 g (4 mmol) of 3,3′-diaminobenzidine. By using this coating composition, a polymer film was prepared by the procedure of Example 16, and the infrared absorption spectrum of the film was determined to find that the target crosslinked polybenzimidazole film was formed. The film has a film thickness of less than 20 nm. […]

Read-outs that look alike come from different tables or passages of the source.

`O=C(O)C12CC3(C(=O)O)CC(C(=O)O)(C1)CC(C(=O)O)(C2)C3` [1,3,5,7-adamantanetetracarboxylic acid]: the “solubility in the solvent (methyl isobutyl ketone: MIBK)” value is “low”.
With `O=C(O)C12CC3CC(C(=O)O)(C1)CC(C(=O)O)(C3)C2` [1,3,5-adamantanetricarboxylic acid], the “solubility in the solvent (mesitylene)” value is “low”.
Regarding `Nc1ccc(-c2ccc(N)c(N)c2)cc1N` [3,3′-diaminobenzidine], the “solubility in the solvent (mesitylene)” value (same amounts as in Example 15 in 100 g mesitylene, room temperature, nitrogen atmosphere, acid and amine monomer dissolved together) is given as “low”. The “solubility in the solvent (methyl isobutyl ketone: MIBK)” value (same amounts as in Example 16 in 100 g MIBK, room temperature, nitrogen atmosphere, acid and amine monomer dissolved together) was “low”. The “solubility in the solvent (dioxane)” value (same amounts as in Example 17 in 100 g dioxane, room temperature, nitrogen atmosphere, together with 1,3,5-adamantanetricarboxylic acid) is on record as “low”.
For the compound `Nc1ccc(-c2ccc(N)c(O)c2)cc1O` [3,3′-dihydroxybenzidine], the “solubility in the solvent (propylene glycol monomethyl ether: PGME)” value (same amounts as in Example 19 in 100 g PGME, room temperature, nitrogen atmosphere, together with 1,3,5-adamantanetricarboxylic acid) is “low”.
